Measured values published in article PMC7765098, “Non-Steroidal Anti-Inflammatory Drugs Increase Cisplatin, Paclitaxel, and Doxorubicin Efficacy against Human Cervix Cancer Cells” (Pharmaceuticals, 2020).
Where two headings read alike, the source gives them in different places. One block for each compound: values may come before it.

Legend:
HeLa cells [1] = assay: Bidimensional HeLa cell proliferation (MTT assay), drugs alone or combined; format: cell-based, human; conditions: for IC50: read-out: IC50, bidimensional HeLa cell growth; for decrement of the IC50 value: bidimensional HeLa, presence of either NSAID (celecoxib or DMC) vs monotherapy
Procedure: (§1) For cellular proliferation with and without drugs, the cell lines (20 × 10^3 cells/well) were grown as bidimensional in 96-well plates containing Dulbecco’s Modified Eagle’s Medium (DMEM) (Sigma-Aldrich) for 24 h.
(§2) The combination effect of NSAIDs and chemotherapy drugs on proliferation was also analyzed by determining the resistance index ratio (RI) and the combination index (CI) value.

3T3 fibroblasts = assay: Bidimensional 3T3 fibroblast proliferation (MTT assay); format: cell-based, mouse; conditions: read-out: IC50, bidimensional 3T3 cell growth
Procedure: as §1, §2

[2] = system: MCF-10A mammary gland cells; assay: Bidimensional MCF-10A cell proliferation (MTT assay); format: cell-based, human; conditions: read-out: IC50, bidimensional MCF-10A cell growth
Procedure: as §1

HeLa MCTS = assay: HeLa multi-cellular tumor spheroid (MCTS) growth, preventive and curative protocols; format: cell-based, human
Procedure: HeLa, SiHa, and U373 (1 × 10^5 cells/mL) were seeded onto 2% (w/v) agarose-coated culture dishes in 5 mL DMEM. […] The growth of each MCTS was analyzed by fitting data to a logistic function for exponential growth using the Origin 8 software (Northampton MA, USA).
as §2

HFF1 fibroblasts = assay: Bidimensional HFF1 fibroblast proliferation (MTT assay); format: cell-based; conditions: read-out: IC50, bidimensional HFF1 cell growth
Procedure: as §1

[3] = system: OxPhos flux in HeLa cells; assay: OxPhos flux (oligomycin-sensitive oxygen consumption) in HeLa cells; format: cell-based, human; conditions: for OxPhos flux decrease: 5 µM celecoxib, 2 µM cisplatin, 15 µM paclitaxel, 24 h exposure; for OxPhos (mitochondrial flux) decrease, summary in Discussion: celecoxib or DMC alone, or combined with chemotherapy drugs
Procedure: For total oxygen consumption and OxPhos fluxes, HeLa, SiHa, or U373 cells or 3T3 fibroblasts (1 mg protein/mL), cultured for 24 h with the indicated drugs, were harvested and further incubated at 37 °C in air-saturated KR buffer and under constant agitation.

[4] = system: glycolysis flux in HeLa cells; assay: Glycolytic flux (lactate production) in HeLa cells; format: cell-based, human; conditions: 5 µM celecoxib, 2 µM cisplatin, 15 µM paclitaxel, alone; 24 h exposure
Procedure: Glycolysis was started by adding 5 mM glucose (Sigma-Aldrich). Cellular samples were collected after 0 and 10 min of incubation, swiftly mixed with 30% (w/v) of cold perchloric acid, and centrifuged at 3500 rpm for 5 min. Supernatants were neutralized with 1N KOH/100 mM Tris. Cells were also incubated with 2-deoxyglucose (2-DG, 20 mM) (Sigma-Aldrich) to prevent lactate production by glycogen degradation. Lactate production was determined by the lactate dehydrogenase (Roche, Mannheim, Germany) coupled assay registering the NADH formation at 340 nm.

HeLa cells [5] = assay: Cell invasiveness assay (Boyden chamber), HeLa; format: cell-based, human; conditions: celecoxib (5 µM), paclitaxel (15 µM), cisplatin (2 µM), alone or combined, 24 h
Procedure: The lower compartment was filled with serum-free DMEM. After 24 h at 37 °C, the invasive cells found in the lower compartment were loaded with 60 nM calcein AM (acetomethylester) for 60 min.

[6] = system: OxPhos flux in HeLa cells; conditions: vs. non-treated cells; cited from earlier work
COX-2 = conditions: at 100 µM; cited from earlier work
[7] = drug alone, 24 h of drug exposure
[8] = drug alone, 24 h of drug exposure, non-cancer
[9] = drug alone, added at the beginning of culture, determined at day 20 of growth, read-out: IC50, tridimensional HeLa MCTS, Preventive
[10] = drug alone, added once spheroids were formed (day 10), determined at day 20 of growth, read-out: IC50, tridimensional HeLa MCTS, Curative
[11] = Homo sapiens, HeLa, drug alone, 24 h of drug exposure
[12] = Homo sapiens, MCF-10A, drug alone, 24 h of drug exposure, non-cancer
[13] = Homo sapiens, HeLa, 480 h, read-out: IC50, tridimensional HeLa MCTS, Preventive
[14] = Homo sapiens, HeLa, read-out: IC50, tridimensional HeLa MCTS, Curative
[15] = Mus musculus, NIH3T3, drug alone, 24 h of drug exposure, non-cancer
[16] = Homo sapiens, HFF-1, drug alone, 24 h of drug exposure, non-cancer
[17] = Homo sapiens, HeLa, 480 h, drug alone, added at the beginning of culture, determined at day 20 of growth, read-out: IC50, tridimensional HeLa MCTS, Preventive
[18] = Homo sapiens, HeLa, drug alone, added once spheroids were formed (day 10), determined at day 20 of growth, read-out: IC50, tridimensional HeLa MCTS, Curative

Compound: N.N.O=C([O-])C1(C(=O)[O-])CCC1.[Pt+2] [Carboplatin, carboplatin]
IC50, bidimensional HeLa cell growth (HeLa cells [1]; [7]): in the mM range | IC50 (HeLa cells [1]; [7]): 1000 ± 400 µM | IC50 (3T3 fibroblasts; [8]): > 5000 µM | IC50 [2, 8]: > 1000 µM | IC50 (HeLa MCTS; [9]): 0.165 ± 0.028 µM | IC50 (HeLa MCTS; [10]): 287 ± 43 µM

Compound: Cc1ccc(-c2cc(C(F)(F)F)nn2-c2ccc(S(N)(=O)=O)cc2)cc1 [Celecoxib, celecoxib]
IC50 (HeLa cells [1]; [11]): 55 ± 9 µM | IC50 (3T3 fibroblasts; Mus musculus, NIH3T3, 24 h): 119 ± 7 µM | IC50 [2, 12]: > 100 µM | IC50 (HFF1 fibroblasts; Homo sapiens, HFF-1, 24 h): 96 ± 13 µM | decrease of chemotherapy drug IC50 values (HeLa MCTS; HeLa MCTS, both preventive and curative protocols): > 70% | IC50 (HeLa MCTS; [13]): 0.001 ± 0.0003 µM | IC50 (HeLa MCTS; [14]): 7.5 ± 2 µM | OxPhos flux decrease ([3]; alone or in combination): 36–50% | OxPhos (mitochondrial flux) decrease, summary in Discussion [3]: 50–60% | glycolysis decrease [4]: 36–50% | decrease of invasiveness potential (HeLa cells [5]): did not alter | OxPhos and mitochondrial membrane potential affected [6]: 50–80%

Compound: N.N.[Cl][Pt][Cl] [Cisplatin, cisplatin]
decrement of the IC50 value (HeLa cells [1]): 38–66% | IC50 (HeLa cells [1]; [7]): 15 ± 3 µM | IC50 [2, 8]: 82 ± 4 µM | IC50 (HFF1 fibroblasts; [8]): 59 ± 26 µM | IC50 (HeLa MCTS; [9]): 0.05 ± 0.017 µM | IC50 (HeLa MCTS; [10]): 270 ± 20 µM | OxPhos flux decrease ([3]; alone or in combination): did not significantly affect | glycolysis decrease [4]: 40–60% | decrease of invasiveness potential (HeLa cells [5]): did not alter

Compound: O=P1(N(CCCl)CCCl)NCCCO1 (stereo not shown) [Cyclophosphamide, cyclophosphamide]
IC50 (HeLa cells [1]; Homo sapiens, HeLa, 24 h): 16 ± 3 µM | IC50 (3T3 fibroblasts; Mus musculus, NIH3T3, 24 h): > 1000 µM | IC50 ([2]; Homo sapiens, MCF-10A, 24 h): 102 ± 35 µM | IC50 (HeLa MCTS; [13]): 0.136 ± 0.087 µM | IC50 (HeLa MCTS; [14]): 315 ± 30 µM

IC50 (HeLa cells [1]; [11]): 48 ± 2 µM | lowering of cisplatin and paclitaxel IC50 values (HeLa MCTS; HeLa MCTS curative protocol): 45–73% | lowering of cisplatin and paclitaxel IC50 values (HeLa MCTS; HeLa MCTS preventive protocol): 52–55% | IC50 (HeLa MCTS; [17]): 0.01 ± 0.002 µM | IC50 (HeLa MCTS; [18]): 32 ± 10 µM
Compound: Cc1ccc(C)c(-c2cc(C(F)(F)F)nn2-c2ccc(S(N)(=O)=O)cc2)c1 [DMC, 2,5-dimethylcelecoxib]
IC50 (3T3 fibroblasts; [15]): 69 ± 8.5 µM | IC50 [2, 12]: > 100 µM | IC50 (HFF1 fibroblasts; [16]): 44 ± 11 µM | inhibition at 15 µM ([3]; Homo sapiens, HeLa, DMC (15 µM), paclitaxel (20 µM), cisplatin (5 µM), alone or in combination, 24 h, n=1 (Figure S3)): 60% | OxPhos (mitochondrial flux) decrease, summary in Discussion [3]: 50–60% | COX-2 activity blocked (COX-2): 15%

IC50 (HeLa cells [1]; [11]): 26 ± 6 µM | decrement of the IC50 value (HeLa cells [1]): 38–66% | IC50 (HeLa MCTS; [17]): 0.048 ± 0.007 µM | IC50 (HeLa MCTS; [18]): 86 ± 5 µM
Compound: COc1cccc2c1C(=O)c1c(O)c3c(c(O)c1C2=O)C[C@@](O)(C(=O)CO)C[C@@H]3O[C@H]1C[C@H](N)[C@H](O)[C@H](C)O1 [Doxorubicin, doxorubicin]
IC50 (3T3 fibroblasts; [15]): 51 ± 18 µM | IC50 [2, 12]: 82 ± 25 µM | IC50 (HFF1 fibroblasts; [16]): 65 ± 19 µM

IC50 (HeLa cells [1]; [11]): 30 ± 5 µM | IC50 (HeLa MCTS; [17]): 0.065 ± 0.017 µM | IC50 (HeLa MCTS; [18]): 128 ± 20 µM
Compound: Nc1ccn([C@@H]2O[C@H](CO)[C@@H](O)C2(F)F)c(=O)n1 [Gemcitabine, gemcitabine]
IC50 (3T3 fibroblasts; [15]): > 2000 µM | IC50 [2, 12]: > 1000 µM

IC50 (HeLa cells [1]; [11]): 21 ± 4 µM | IC50 (HeLa MCTS; [17]): 0.016 ± 0.005 µM | IC50 (HeLa MCTS; [18]): 26.5 ± 0.1 µM
Compound: CC(=O)O[C@H]1C(=O)[C@@]2(C)[C@H]([C@H](OC(=O)c3ccccc3)[C@]3(O)C[C@H](OC(=O)[C@H](O)[C@@H](NC(=O)c4ccccc4)c4ccccc4)C(C)=C1C3(C)C)[C@]1(OC(C)=O)CO[C@@H]1C[C@@H]2O [Paclitaxel]
IC50 (3T3 fibroblasts; [15]): 80 ± 12 µM | IC50 [2, 12]: 100 ± 18 µM | IC50 (HFF1 fibroblasts; [16]): 68 ± 30 µM | OxPhos flux decrease ([3]; alone or in combination): did not significantly affect | glycolysis decrease [4]: 40–60% | decrease of invasiveness potential (HeLa cells [5]): did not alter

IC50 (HeLa cells [1]; [11]): 4.7 ± 0.7 µM | IC50 (HeLa MCTS; [17]): 0.025 ± 0.006 µM | IC50 (HeLa MCTS; [18]): 30 ± 2 µM
Compound: Cc1c(C)c2c(c(C)c1OCC(=O)O)CC[C@@](C)(CCC[C@H](C)CCC[C@H](C)CCCC(C)C)O2 [α-TEA, α-tocopherol ether linked acetic acid analog]

IC50 (HeLa cells [1]; [7]): 1.2 ± 0.46 µM | IC50 (HeLa MCTS; [9]): 0.01 ± 0.004 µM | IC50 (HeLa MCTS; [10]): 50 ± 11 µM
Compound: Cc1c(C)c2c(c(C)c1OC(=O)CCC(=O)O)CC[C@@](C)(CCC[C@H](C)CCC[C@H](C)CCCC(C)C)O2 [α-TOS, α-tocopheryl succinate]

decrease of IC50 values of cisplatin, paclitaxel, and doxorubicin (HeLa cells [1]; bidimensional HeLa cultures, co-added drug vs monotherapy): 19–54% | IC50 (HeLa cells [1]; [7]): 1.5 ± 0.9 µM | IC50 (HeLa MCTS; [9]): 0.03 ± 0.0075 µM | IC50 (HeLa MCTS; [10]): 106 ± 2 µM | decrease of IC50 values of cisplatin, paclitaxel, and doxorubicin (HeLa MCTS; tridimensional HeLa cultures): 62–96%
Compound: Casiopeina II-gly [CasII-gly]
IC50 (3T3 fibroblasts; [8]): 9 ± 2 µM | IC50 [2, 8]: 17 ± 3 µM | increase of cisplatin toxicity (decrease of cisplatin IC50) (HeLa MCTS; HeLa MCTS): 84–96%

IC50 (HeLa cells [1]; [7]): 1.2 ± 0.48 µM
Compound: methoxy-tocopheryl oxyacetic acid [M-TEA]
